# Measured values taken from patent publication US4871722A, “Synergistic veterinary composition and/or fodder premix and process for preparing same” (priority 1987, dated 1989).
# Like-named read-outs stand apart in the source and are kept apart here.
# Assays:
# Aspergillus fumigatus = assay: MIC by broth-dilution method (bactericidal effect), strain F; type: cell-based; conditions: read-out: MIC value
# Method: (§1) The minimum inhibiting concentration (MIC) values of the above compounds and their two- or three-component combinations were determined in phenol-red - glucose broth (product of the Difco Co.) by using the broth-dilution method on the following bacterium strains isolated from chickens: […]
# Salmonella typhimurium = assay: MIC by broth-dilution method (bactericidal effect), strain D; type: cell-based; conditions: Salmonella enterica, read-out: MIC value
# Method: (§2) The minimum inhibiting concentration (MIC) values of the above compounds and their two- or three-component combinations were determined in phenol-red - glucose broth (product of the Difco Co.) by using the broth-dilution method on the following bacterium strains isolated from chickens:
# (§3) D: Salmonella typhimurium
# Escherichia coli 1 = assay: MIC by broth-dilution method (bactericidal effect), strain B; type: cell-based
# Method: as §1
# Escherichia coli 2 = assay: MIC by broth-dilution method (bactericidal effect), strain C; type: cell-based
# Method: as §1
# Pasteurella multocida = assay: MIC by broth-dilution method (bactericidal effect), strain E; type: cell-based; conditions: read-out: MIC value
# Method: as §1
# Staphylococcus aureus = assay: MIC by broth-dilution method (bactericidal effect), strain A; type: cell-based; conditions: read-out: MIC value
# Method: as §1
# [1] = in vivo
# [2] = test system: bacterium strains isolated from chickens; assay: in vitro bacterial growth inhibition over the bacterium strains tested; type: cell-based; conditions: single compound
# Method: as §2, §3
# [3] = in vivo; cited from earlier work
# [4] = Escherichia coli, 1, read-out: MIC value
# [5] = Escherichia coli, 2, read-out: MIC value
# [6] = strain F: Aspergillus fumigatus, phenol-red - glucose broth, bactericidal effect
# [7] = strain D: Salmonella typhimurium, phenol-red - glucose broth, bactericidal effect
# [8] = strain B: Escherichia coli 1, phenol-red - glucose broth, bactericidal effect, read-out: MIC value
# [9] = strain C: Escherichia coli 2, phenol-red - glucose broth, bactericidal effect, read-out: MIC value
# [10] = strain E: Pasteurella multocida, phenol-red - glucose broth, bactericidal effect
# [11] = strain A: Staphylococcus aureus, phenol-red - glucose broth, bactericidal effect
Structure (SMILES),MIC (Aspergillus fumigatus; Aspergillus fumigatus) [mg/L],MIC (Salmonella typhimurium; TYPHIMURIUM) [mg/L],MIC (Escherichia coli 1; [4]) [mg/L],MIC (Escherichia coli 2; [5]) [mg/L],MIC (Pasteurella multocida; Pasteurella multocida) [mg/L],MIC (Staphylococcus aureus; Staphylococcus aureus) [mg/L],dose necessary for the in vitro antibacterial effect [2],MIC (Aspergillus fumigatus; [6]) [mg/L],MIC (Salmonella typhimurium; [7]) [mg/L],toxicity; damage of haemopoietic organs and vessel walls [3],MIC (Escherichia coli 1; [8]) [mg/L],MIC (Escherichia coli 2; [9]) [mg/L],MIC (Pasteurella multocida; [10]) [mg/L],MIC (Staphylococcus aureus; [11]) [mg/L],other results
"O=S(=O)(O)O.Oc1cccc2cccnc12 [8-Hydroxyquinoline sulfate, 8-hydroxyquinoline sulfate]",25,50,25,25,1,5,–,–,–,–,–,–,–,–,–
Oc1cccc2cccnc12 [8-hydroxyquinoline],–,–,–,–,–,–,a relatively low dose,–,–,–,–,–,–,–,required therapeutic blood level in the blood plasma [1]: cannot develop in the blood plasma
"COc1ccc(Cc2cnc(N)nc2N)cc1OC [Diaveridine, 2,4-diamino-5-(3,4-dimethoxybenzyl)pyrimidine]",200,200,200,150,150,200,a very high dose,–,–,–,–,–,–,–,–
"COc1cc(NS(=O)(=O)c2ccc(N)cc2)nc(OC)n1 [Sulfadimethoxine, 2,6-dimethoxy-4-sulfanilamidopyrimidine]",–,–,–,–,–,–,–,200,200,no damages of the haemopoietic organs and vessel walls,200,200,200,200,toxicity compared with other sulfonamides [3]: one of the least toxic ones
"COc1cc(Cc2cnc(N)nc2N)cc(OC)c1OC [Trimetoprim, 2,4-diamino-5-(3,4,5-trimethoxybenzyl)pyrimidine]",–,–,–,–,–,–,a very high dose,200,200,–,200,200,100,200,–
"Nc1ccc(S(=O)(=O)Nc2cnc3ccccc3n2)cc1 [sulfachinoxaline, N-(2-chinoxalinyl)sulfanilamide]",–,–,–,–,–,–,–,–,–,the haemopoietic organs and vessel walls of the animals are significantly injured,–,–,–,–,–
